Read-outs that look alike come from different tables or passages of the source.
Tested on: CbCdnB
Conditions: 10 mM Tris-HCl pH 7.4, 25 mM KCl, 20 mM MgCl2, 1 mM MnCl2, 37 °C

Chain of CbCdnB (A0A0L9Y448 1-469): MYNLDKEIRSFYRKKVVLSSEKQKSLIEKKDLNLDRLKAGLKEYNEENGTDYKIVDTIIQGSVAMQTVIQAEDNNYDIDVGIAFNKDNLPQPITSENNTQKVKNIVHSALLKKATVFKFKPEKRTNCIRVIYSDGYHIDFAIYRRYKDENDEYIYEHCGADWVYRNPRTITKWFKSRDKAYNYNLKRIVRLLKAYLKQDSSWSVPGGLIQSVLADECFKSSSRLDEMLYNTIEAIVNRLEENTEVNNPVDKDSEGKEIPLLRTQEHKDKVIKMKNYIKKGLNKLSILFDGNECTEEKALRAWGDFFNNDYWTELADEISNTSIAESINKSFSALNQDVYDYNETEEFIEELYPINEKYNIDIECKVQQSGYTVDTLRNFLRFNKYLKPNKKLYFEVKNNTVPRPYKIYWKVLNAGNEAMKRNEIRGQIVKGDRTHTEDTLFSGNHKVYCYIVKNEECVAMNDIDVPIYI

| Compound | ELISA of product 2′,3′-cGAMP (with GTP) | ELISA of product 2′,3′-cGAMP (with ATP) |
| --- | --- | --- |
| Nc1ncnc2c1ncn2[C@@H]1O[C@H](COP(=O)(O)OP(=O)(O)OP(=O)(O)O)[C@@H](O)[C@H]1O [ATP] | enzyme reaction products produced when the indicated synthase is incubated with ATP and GTP |  |
| Nc1nc2c(ncn2[C@@H]2O[C@H](COP(=O)(O)OP(=O)(O)OP(=O)(O)O)[C@@H](O)[C@H]2O)c(=O)[nH]1 [GTP] |  | enzyme reaction products produced when the indicated synthase is incubated with ATP and GTP |

Source: article PMC13085583 (Cell host & microbe, 2026)
